Assay results reported in article PMC8346053, “Towards Novel 3-Aminopyrazinamide-Based Prolyl-tRNA Synthetase Inhibitors: In Silico Modelling, Thermal Shift Assay and Structural Studies” (International Journal of Molecular Sciences, 2021).
Values joined by “and” are separate entries in the source; they are usually repeats but may differ in a detail not shown here. Equal values may be shown once. Read-outs that look alike come from different tables or passages of the source.

Tests used:
recombinant HcProRS = biological target: T1, recombinant HcProRS (Homo sapiens, UniProt P07814); experiment: fluorescence-based thermal shift assay (TSA); type: binding; details: for Tm with 1 mM L-Pro / ∆Tm without L-Pro / Tm without L-Pro / ∆Tm with 1 mM L-Pro: 100 µM compound; for Tm with 1 mM L-Pro / ∆Tm without L-Pro / Tm without L-Pro / ∆Tm with 1 mM L-Pro / EC50: 3.45 µM HcProRS; for Tm with 1 mM L-Pro: reference Tm with Pro only 60.20; for ∆Tm without L-Pro / Tm without L-Pro: absence of Pro; for ∆Tm without L-Pro: difference of Tm with and without compound; for Tm without L-Pro: reference Tm of HcProRS 56.15; for ∆Tm with 1 mM L-Pro: versus HcProRS with 1 mM Pro only; for fold better (lower) EC50 compared with 4d: relative to 4d; for effect on Tm (in words): full datasets, with and without Pro
T1 construct: SUMO (N, cleaved yes); made in house; host or cells: E. coli Rosetta 2 (DE3) pLysS
T1 sequence (P07814 1001-1512): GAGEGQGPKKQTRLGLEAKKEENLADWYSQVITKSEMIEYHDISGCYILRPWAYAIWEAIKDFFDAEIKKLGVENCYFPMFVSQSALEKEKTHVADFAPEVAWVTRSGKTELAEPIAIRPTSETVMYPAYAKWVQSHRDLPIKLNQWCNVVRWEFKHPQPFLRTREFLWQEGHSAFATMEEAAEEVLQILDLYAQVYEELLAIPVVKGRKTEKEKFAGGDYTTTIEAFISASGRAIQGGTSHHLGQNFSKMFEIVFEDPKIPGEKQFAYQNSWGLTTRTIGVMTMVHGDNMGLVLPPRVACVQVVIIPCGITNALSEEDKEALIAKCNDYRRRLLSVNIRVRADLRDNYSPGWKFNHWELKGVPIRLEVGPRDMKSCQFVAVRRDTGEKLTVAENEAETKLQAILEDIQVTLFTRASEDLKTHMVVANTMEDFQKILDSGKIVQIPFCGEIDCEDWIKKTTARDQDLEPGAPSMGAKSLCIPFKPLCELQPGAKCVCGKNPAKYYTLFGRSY
Protocol: Compound binding usually helps to stabilize the protein due to protein-ligand interactions, resulting in an increase of the melting temperature (Tm) of the target protein during the thermal denaturation process. Each compound was pre-tested at 100 µM concentration against 3.45 µM HcProRS in the absence and presence of 1 mM Pro. The ∆Tm was calculated based on the difference between the Tm values of HcProRS with and without compound. […] In the presence of the natural substrate Pro, the Tm of HcProRS increased by 4 °C. […] In a second-tier characterization, the Tm-based EC50 values of these five hits were determined. […] This is in good agreement with the prior reported improved binding affinity and inhibitory activity of 2a in the presence of Pro when compared to the corresponding values obtained without Pro [16].
A total of 0.2 mg/mL HcProRS (corresponding to 3.45 µM) was incubated with various concentrations of different compounds in the absence or presence of 1 mM L-Pro with 1x thermal shift dye (Life Technologies, California, USA) in reaction buffer containing 50 mM HEPES pH 7.0, 150 mM KCl and 10% (v/v) ethylene glycol. Aliquots (20 µL) were transferred to a 96-well PCR plate in triplicate. After centrifugation to remove air bubbles, the plate was measured in Applied Biosystems® Protein Thermal Shift machine and subjected to a thermal gradient from 4 °C to 95 °C with the increasing rate of 0.05 °C/s. The fluorescence was detected by Protein Thermal Shift™ Software (Life Technologies, California, USA). Data analysis was performed by Boltzmann sigmoidal fitting to calculate melting temperature (Tm).
Figure S2. Dose-response melting curves of HcProRS in the presence of compound and 1 mM Pro. The melting temperature (Tm) at each compound concentration was determined by TSA with 3.45 µM of HcProRS. The reported EC50 values are based on the fitted curves. All reactions were performed in triplicate, the average values and standard errors are shown.
(1 picture or pasted object on this page, not shown here)

HcProRS [1] = biological target: HcProRS; parameters: method as in PMID 28501621; details: in the presence of Pro; cited from earlier work
HcProRS [2] = test system: HcProRS; parameters: method as in PMID 28501621; details: ATP/PPi exchange assay in vitro; read-out: IC50, HcProRS inhibitory activity; cited from earlier work
HcProRS versus ThrRS = test system: HcProRS versus ThrRS; parameters: method as in PMID 28501621; details: reportedly; cited from earlier work
[3] = 1 mM Pro, read-out: EC50 (Tm-based) with 1 mM L-Pro

| SMILES | Tm with 1 mM L-Pro (recombinant HcProRS; 1 mM Pro) [°C] | ∆Tm without L-Pro (recombinant HcProRS) | Tm without L-Pro (recombinant HcProRS) [°C] | ∆Tm with 1 mM L-Pro (recombinant HcProRS) | EC50 (recombinant HcProRS; [3]) [µM] | also measured |
| --- | --- | --- | --- | --- | --- | --- |
| O=C(O)[C@@H]1CCCN1 [Pro, proline] |  |  |  |  |  | increase of Tm of HcProRS by natural substrate Pro (recombinant HcProRS; 1 mM Pro, no compound): 4 °C |
| NC(=O)c1nccnc1NCc1ccccc1 [4a] | 59.36 | −0.35 °C | 55.80 | −0.84 °C |  |  |
| NC(=O)c1nccnc1NCc1ccccc1Cl [4h] | 62.47 |  | 57.04 | +2.27 °C | 13.6 ± 3.27 | fold better (lower) EC50 compared with 4d (recombinant HcProRS; TSA EC50 with 1 mM Pro): 6 fold and 7 fold |
| Nc1nccnc1C(=O)O [3-NH2-POA, 3-aminopyrazinoic acid, reference compound] | 59.50 | −0.28 °C | 55.87 | −0.70 °C |  | effect on Tm (in words) (recombinant HcProRS): no effect on Tm |
| O=C(NC1Cc2ccccc2C1)c1nccnc1NC(=O)C1CCCCC1 [2a, 3-(cyclohexanecarboxamido)-N-(2,3-dihydro-1H-inden-2-yl)pyrazine-2-carboxamide, reference compound] | 73.35 |  | 63.15 |  | 3.74 ± 0.67 | EC50 (recombinant HcProRS; no Pro, read-out: EC50 (Tm-based) in the absence of Pro): 30.3 ± 3.63 µM; Kd (HcProRS [1]): 0.00076 µM; IC50 (HcProRS [2]): 0.012 µM; selectivity for HcProRS versus ThrRS (HcProRS versus ThrRS): 2500 fold |
| COc1ccc(CNc2nccnc2C(N)=O)cc1 [4f] | 58.33 | +0.19 °C | 56.34 | −1.87 °C |  |  |
| NC(=O)c1nccnc1NCc1ccc(Cl)c(Cl)c1 [4c] | 57.47 | −1.58 °C | 54.57 | −2.73 °C |  |  |
| O=C(O)c1cnccn1 [POA, pyrazinoic acid, reference compound] | 59.06 | −0.63 °C | 55.52 | −1.14 °C |  | effect on Tm (in words) (recombinant HcProRS): no effect on Tm |
| Cc1ccccc1CNc1nccnc1C(N)=O [4d] | 63.33 | −0.24 °C | 55.91 | +3.13 °C | 91.1 ± 18.4 |  |
| NC(=O)c1cnccn1 [PZA, pyrazinamide] | 59.04 | −0.09 °C | 56.06 | −1.16 °C |  | effect on Tm (in words) (recombinant HcProRS): no effect on Tm |
| COc1ccc(CNc2nccnc2C(N)=O)c(OC)c1 [4k] | 58.48 | −0.07 °C | 56.08 | −1.72 °C |  |  |
| NC(=O)c1nccnc1NCc1ccccc1C(F)(F)F [4j] | 67.12 |  | 58.13 | +6.92 °C | 15.3 ± 1.04 | fold better (lower) EC50 compared with 4d (recombinant HcProRS; TSA EC50 with 1 mM Pro): 6 fold and 7 fold |
| NC(=O)c1nccnc1NCc1ccc(Cl)cc1 [4e] | 58.70 | −1.09 °C | 55.06 | −1.5 °C |  |  |
| Cc1ccccc1CNC(=O)c1nccnc1NCc1ccccc1C [3c] | 62.72 | −0.90 °C | 55.25 | +2.52 °C | 7.34 ± 1.66 | fold better (lower) EC50 compared with 4d (recombinant HcProRS; TSA EC50 with 1 mM Pro): 12.4 fold |
| O=C(NCc1ccc(F)cc1)c1nccnc1NCc1ccc(F)cc1 [3a] | 58.21 | −0.90 °C | 55.25 | −1.99 °C |  |  |
| NC(=O)c1nccnc1NCc1cccc(Cl)c1 [4b] | 60.42 | −0.77 °C | 55.38 | +0.22 °C |  |  |
| NC(=O)c1nccnc1NCc1ccccc1F [4i] | 60.30 | −0.69 °C | 55.46 | +0.10 °C |  |  |
| O=C(NCc1ccccc1Cl)c1nccnc1NCc1ccccc1Cl [3b] | 64.92 | −0.10 °C | 56.05 | +4.72 °C | 3.77 ± 0.85 | fold lower EC50 relative to 3c (recombinant HcProRS; TSA EC50 with 1 mM Pro, relative to 3c): 2 fold; fold lower EC50 compared with 4h (recombinant HcProRS; TSA EC50 with 1 mM Pro, relative to 4h): 3.6 fold |
| Cc1ccc(CNc2nccnc2C(N)=O)cc1 [4g] | 59.09 | −0.39 °C | 55.76 | −1.11 °C |  |  |
